Measurements taken from the NIST ThermoML archive (doi:10.1007/s10765-019-2484-6).

Test: xn = mol fraction of the nth substance listed
Conditions: Gas, Loschmidt cell combined with holographic interferometry

CCC [propane] + O=C=O
Conditions | binary diffusion coefficient [m2/s]
293.24 K, 50 kPa, x1 = 0.5 | 1.89e-05
293.25 K, 100 kPa, x1 = 0.1665 | 8.54e-06
293.25 K, 200 kPa, x1 = 0.1665 | 4.14e-06
293.27 K, 100 kPa, x1 = 0.333 | 8.31e-06
293.27 K, 100 kPa, x1 = 0.833 | 8.29e-06
293.27 K, 500 kPa, x1 = 0.1665 | 1.59e-06
293.28 K, 200 kPa, x1 = 0.333 | 4.12e-06
293.28 K, 200 kPa, x1 = 0.833 | 4.06e-06
293.3 K, 500 kPa, x1 = 0.333 | 1.71e-06
293.31 K, 200 kPa, x1 = 0.4995 | 4.12e-06
293.32 K, 100 kPa, x1 = 0.4995 | 8.23e-06
293.32 K, 500 kPa, x1 = 0.833 | 1.51e-06
293.33 K, 200 kPa, x1 = 0.6665 | 4.06e-06
293.33 K, 500 kPa, x1 = 0.4995 | 1.49e-06
293.36 K, 100 kPa, x1 = 0.6665 | 8.25e-06
293.37 K, 200 kPa, x1 = 0.5 | 4.06e-06
293.39 K, 500 kPa, x1 = 0.5 | 1.54e-06
293.41 K, 500 kPa, x1 = 0.6665 | 1.52e-06
293.47 K, 100 kPa, x1 = 0.5 | 8.23e-06
313.21 K, 200 kPa, x1 = 0.333 | 4.88e-06
313.21 K, 500 kPa, x1 = 0.5 | 1.77e-06
313.22 K, 200 kPa, x1 = 0.5 | 4.77e-06
313.23 K, 100 kPa, x1 = 0.6665 | 9.67e-06
313.23 K, 200 kPa, x1 = 0.833 | 4.77e-06
313.25 K, 100 kPa, x1 = 0.833 | 9.53e-06
313.26 K, 100 kPa, x1 = 0.333 | 9.71e-06
313.26 K, 200 kPa, x1 = 0.6665 | 4.79e-06
313.27 K, 500 kPa, x1 = 0.333 | 1.94e-06
313.27 K, 500 kPa, x1 = 0.6665 | 1.85e-06
313.27 K, 500 kPa, x1 = 0.833 | 1.86e-06
313.28 K, 100 kPa, x1 = 0.1665 | 9.79e-06
313.28 K, 200 kPa, x1 = 0.1665 | 4.8e-06
313.29 K, 200 kPa, x1 = 0.4995 | 4.8e-06
313.31 K, 500 kPa, x1 = 0.1665 | 1.95e-06
313.32 K, 100 kPa, x1 = 0.4995 | 9.71e-06

C [methane] + CCC
Conditions | binary diffusion coefficient [m2/s]
293.09 K, 500 kPa, x2 = 0.659 | 2.12e-06
293.12 K, 500 kPa, x2 = 0.3331 | 2.19e-06
293.12 K, 500 kPa, x2 = 0.492 | 2.07e-06
293.13 K, 500 kPa, x2 = 0.833 | 1.97e-06
293.16 K, 500 kPa, x2 = 0.5 | 2.19e-06
293.18 K, 500 kPa, x2 = 0.159 | 2.36e-06
293.19 K, 50 kPa, x2 = 0.5 | 2.36e-06
293.21 K, 200 kPa, x2 = 0.5 | 5.78e-06
293.29 K, 100 kPa, x2 = 0.5 | 1.18e-05
293.31 K, 100 kPa, x2 = 0.4973 | 1.21e-05
293.31 K, 100 kPa, x2 = 0.6665 | 1.18e-05
293.31 K, 200 kPa, x2 = 0.6665 | 5.81e-06
293.32 K, 100 kPa, x2 = 0.159 | 1.24e-05
293.32 K, 100 kPa, x2 = 0.3335 | 1.18e-05
293.33 K, 100 kPa, x2 = 0.833 | 1.18e-05
293.33 K, 200 kPa, x2 = 0.159 | 6.16e-06
293.33 K, 200 kPa, x2 = 0.3335 | 5.7e-06
293.33 K, 200 kPa, x2 = 0.833 | 5.77e-06
293.34 K, 200 kPa, x2 = 0.498 | 5.81e-06
313.28 K, 500 kPa, x2 = 0.4995 | 2.71e-06
313.52 K, 500 kPa, x2 = 0.832 | 2.73e-06
313.54 K, 500 kPa, x2 = 0.1665 | 2.8e-06
313.55 K, 100 kPa, x2 = 0.8295 | 1.37e-05
313.55 K, 500 kPa, x2 = 0.332 | 2.79e-06
313.55 K, 500 kPa, x2 = 0.5 | 2.72e-06
313.56 K, 100 kPa, x2 = 0.3295 | 1.4e-05
313.56 K, 100 kPa, x2 = 0.4995 | 1.31e-05
313.57 K, 200 kPa, x2 = 0.4995 | 6.73e-06
313.57 K, 200 kPa, x2 = 0.6665 | 6.92e-06
313.58 K, 100 kPa, x2 = 0.159 | 1.52e-05
313.58 K, 200 kPa, x2 = 0.5 | 6.91e-06
313.59 K, 100 kPa, x2 = 0.5 | 1.38e-05
313.59 K, 200 kPa, x2 = 0.3295 | 6.98e-06
313.59 K, 500 kPa, x2 = 0.6665 | 2.76e-06
313.6 K, 100 kPa, x2 = 0.6665 | 1.4e-05
313.6 K, 200 kPa, x2 = 0.159 | 7.39e-06
313.61 K, 200 kPa, x2 = 0.8295 | 6.76e-06
